# Oligonucleotides are written 5' to 3', each unit as a sugar letter and its base; * is a phosphorothioate linkage, no mark a phosphodiester; rarer units and linkages stand in square brackets, end groups in braces. Plain capitals give the bases only. d = 2'-deoxy (DNA)
# How the values were obtained:
# [1] = tested on: 5′-biotinylated B-CpG; test: TSM acoustic biosensor, peptide binding to immobilized B-CpG; conditions: URP, immobilized B-CpG
# Source text: (§1) To characterize the interaction of the studied synthetic ODNs with the LRR11 peptide, we applied the thickness shear mode (TSM) acoustic biosensor method, which is based on the investigation of ultrasonic waves in piezoelectric materials such as AT-cut quartz. This approach involved immobilizing a 5′-biotinylated ODN on the surface of TSM transducer covered by NeutrAvidin and then adding the LRR11 peptide. An unrelated peptide (URP) with a random primary structure ([…]) was used as a negative control. The measurement procedure was divided into several steps, in which each immobilization stage was followed by washing with an appropriate buffer solution; when peptide solutions at different concentrations (from 1 to 100 nM) were added to the surface-modified TSM transducer, a wash with Hanks buffer was used before increasing the peptide concentration.
# (§2) Based on Langmuir isotherm Equation (1), (1) Δfcc=Δfsmaxc/KD+c where Δfs(c) is the frequency change at a certain peptide concentration under equilibrium conditions, (Δfs)max is the maximum frequency change, c is the peptide concentration, and KD is the equilibrium constant of dissociation, we estimated the (Δfs)max and KD values for binding of the LRR11 peptide to C-CpG and B-CpG (Table 3).
# Eight MHz AT-cut piezoelectric quartz crystal transducer was obtained from CH Instruments, Austin, TX, USA. The transducer was covered on both sides with thin layers of gold that served as electrodes (working area 0.2 cm^2). Prior ODNs immobilization, the crystal was carefully cleaned with basic Piranha solution (29% NH3, 30% H2O and H2O2 with volumetric 1:5:1 ratio, respectively) for 25 min. After the thorough cleaning, the crystal was positioned between two silicon O-rings in a flow-through cell. The analyte was injected into the cell using a Genie Plus syringe pump (Kent Scientific, Torrington, CT, USA) at a flow rate of 50 μL/min. Each solution was applied until the resonance frequency stabilized. The surface of the transducer was first washed with deionized water, and then 125 μg/mL NeutrAvidin (WWR International GmbH, Vienna, Austria) solution in water was applied. Approximately 15 min were required to stabilize the signal at a constant NeutrAvidin flow rate. This was followed by washing with water to rinse out all non-chemisorbed NeutrAvidin molecules. Immobilization of ODN on the gold surface of the crystals is accomplished using avidin–biotin interactions. A 1 μM 5′-biotinylated ODN solution was injected over the neutravidin-modified surface and subsequently the crystal was washed again with water. The system was then equilibrated using Hanks buffer solution. This buffer was suitable for studying LRR11–ODN binding. Then LRR11 was used at concentrations of 1, 5, 10, 50 and 100 nM […] in Hanks buffer. After each addition of LRR11, the sensor surface was washed with Hanks buffer and LRR11 with the higher concentration was added. All binding experiments were carried out at room temperature. Buffer and sample solutions were introduced in a flow-through format. A network analyzer 8712ES (Agilent Technologies, Santa Clara, CA, USA) was used to measure the impedance properties of the sensor and determine fS and Rm.
# [2] = tested on: 5′-biotinylated G-rich ODN; test: TSM acoustic biosensor, peptide binding to immobilized G-rich ODN; conditions: URP, immobilized G-rich ODN
# Source text: as §1
# (§3) Eight MHz AT-cut piezoelectric quartz crystal transducer was obtained from CH Instruments, Austin, TX, USA. The transducer was covered on both sides with thin layers of gold that served as electrodes (working area 0.2 cm^2). Prior ODNs immobilization, the crystal was carefully cleaned with basic Piranha solution (29% NH3, 30% H2O and H2O2 with volumetric 1:5:1 ratio, respectively) for 25 min. After the thorough cleaning, the crystal was positioned between two silicon O-rings in a flow-through cell. […]
# [3] = tested on: 5′-biotinylated C-CpG; test: TSM acoustic biosensor, peptide binding to immobilized C-CpG; conditions: up to 100 nM URP, immobilized C-CpG; Figure 4A
# Source text: as §1, §2
# Using Sauerbrey’s Equation (2), (2) Δf=−2f02Δm/Aμqρq where f0 is the fundamental resonance frequency (in our case 8 MHz), Δm is the change in mass (in grams) of the adsorbed layer on the crystal surface, A is the effective crystal area (in our case 0.2 cm^2), μq = 2.947 × 10^11 g × cm^−1s^−2 is the shear modulus of elasticity, and ρq = 2.648 g × cm^−3 is the crystal density, surface concentrations of NeutrAvidin, ODN and LRR11 peptide were estimated based on changes of resonance frequency (Figure 4). According to Equation (2), the surface density of molecules, σ (in molecules/cm^2), can be calculated as σ = ΔmNA/(A × Mw), where NA is Avogadro’s number (=6.023 × 10^23 mol^−1), and Mw represents the molecular weight of the corresponding compound (NeutrAvidin: 65 kDa, 5′-biotinylated C-CpG: 7115.4 Da, and LRR11: 3421 Da). Based on this approach, we obtained the following surface concentration values: 1.94 × 10^13 cm^−2 for NeutrAvidin, 3.37 × 10^13 cm^−2 for C-CpG and 2.4 × 10^13 cm^−2 for LRR11. The NeutrAvidin has four binding sites, two of which are available for biotinylated ODN binding. This is due to the fact that the other two sites are inaccessible due to NeutrAvidin chemisorption on the TSM surface. Thus, the number of available binding sites for the ODN is 3.88 × 10^13 cm^−2. […] Therefore, the surface of the TSM transducer is practically completely saturated by C-CpG. Estimation of the surface concentration of LRR11 evidences that at 50 nM concentration of this peptide, it occupies almost 70.6% of the ODN molecules. […]
# [4] = tested on: NeutrAvidin; test: TSM acoustic biosensor, unspecific binding to NeutrAvidin in the absence of ODNs
# Source text: as §1, §3
# [5] = tested on: PMNLs, 5-LOX product formation; test: 5-LOX product formation in PMNLs stimulated by calcium ionophore A23187; assay type: cell-based, human; conditions: 1 µM A23187 alone for 10 min, after 30 min at 37 °C without inhibitor; mean ± SEM, three independent experiments
# Method: (§4) Human neutrophils were isolated from freshly taken citrate-anticoagulated peripheral blood from healthy individuals using standard methods. Leukocyte-rich plasma was prepared by sedimentation of erythrocytes with 3% dextran T-500 at room temperature. For purification of granulocytes, centrifugation through Ficoll-Paque (density 1.077 g/mL) was used, followed by hypotonic lysis of the remaining erythrocytes. PMNLs were washed twice in PBS, resuspended at 10^7 cells/mL (96–97% purity, 98–99% viability) in Dulbecco’s PBS containing 1 mg/mL glucose (no CaCl2) and stored at room temperature. All methods were performed in accordance with the relevant instructions and regulations of the Ministry of Health of the Russian Federation and local legislation.
# (§5) To purify the water/methanol extracts, solid-phase extraction was used on Sep-Pak C18 cartridges (500 mg; Macherey-Nagel, Dueren, Germany), which were conditioned first with methanol, and then with water. Major 5-LOX metabolites were identified by comparing retention times with those of known compounds, as previously described.
# [6] = tested on: human neutrophils (PMNLs), 5-LOX product synthesis; test: 5-LOX metabolite synthesis in human neutrophils stimulated with opsonized S. typhimurium (HPLC); assay type: cell-based
# Method: Figure 1 Effects of LRR11 and ODNs on the formation of LTB4 (A,B) and the sum of 5-LOX metabolites (ω-OH-LTB4, LTB4 and its isomers, and 5-HETE) (C) in human PMNLs. PMNLs (2 × 10^7) were incubated for 15 min at 37 °C without (black bars) or with 1 μM LRR11 (A, LRR11_first); then ODNs and LRR11 or LPS were added; various ways of adding ODN and LRR11 peptide are indicated. In control samples, Hanks’ solution was added instead of ODNs. After 20 min, 0.5 × 10^9 S. typhimurium bacterial cells were added for a further 15 min. The 5-LOX products were determined using HPLC. Values indicate mean ± SEM of five independent experiments performed in duplicate. * p < 0.05, ** p < 0.01, *** p < 0.005, compared with the control. # p < 0.05, ## p < 0.01 for pairs of data compared as indicated by two-way ANOVA followed by Tukey’s multiple comparison test.
# Figure 3 Synthesis of the 5-LOX metabolites in PMNLs exposed to opsonized S. typhimurium bacteria in the presence of the RAGE antagonist FPS-ZM1. PMNLs (2 × 10^7) were incubated for 15 min at 37 °C without additives or with 0.15 µM FPS-ZM1, for the next 20 min the mixture was incubated with 1 µM ODNs without (black bars) or with 1 µM LRR11 (gray bars) before adding 5 × 10^8 S. typhimurium for 15 min. In control samples, Hanks’ solution was added instead of ODNs. The 5-LOX products were determined using HPLC. Graphical data are presented for LTB4 (A) or the sum of LTB4 and its isomers, ω-OH-LTB4 and 5-HETE, designed as Σ5LOX products (B).
# as §4, with “PMNLs were washed twice in PBS, resuspended at 10^7 cells/mL (96–97% purity, 98–99% viability) in Dulbecco’s PBS containing 1 mg/mL glucose (no CaCl2) and stored at room temperature.” left out
# Bacteria (S. typhimurium IE 147 strain) obtained from the Collection of Gamaleya National Research Center of Epidemiology and Microbiology (Moscow, Russia) were grown in Luria–Bertani broth to a concentration of 1 × 10^9 colony-forming units (CFU)/mL. The bacteria were collected by centrifugation at 2000 g and opsonized immediately before the experiment for 30 min in 20% (v/v) fresh serum from the same donor whose blood was used to isolate neutrophils. Repeated centrifugation in Dulbecco’s solution was used to wash the bacteria.
# The cell suspension (2 × 10^7 PMNLs in HBSS/HEPES, reaction volume of 6 mL) was cultured for 15 min in an incubator at 37 °C, 5% CO2. Then 1.0 µM ODN with or without 1.0 µM LRR11, or 2 µg/mL LPS, was added as indicated. After 20 min, the cells were stimulated with S. typhimurium (the ratio of bacteria to PMNLs was approximately 20:1) for the next 15 min [3]. The synthesis of 5-LOX metabolites was stopped by adding an equal volume of methanol at −20 °C with prostaglandin B2 as an internal standard. Samples were stored at −20 °C. The denatured cell suspension was centrifuged, and supernatants designated as water/methanol extracts.
# as §5
# Table S1. Effect of Chloroquine on 5-LOX product formation in PMNLs after ODN priming followed by the addition
# of opsonized S. typhimurium bacteria.
compound,measurement,setting,value
"LQTLDLRDNALTTIHFIPSIPD [URP, unrelated peptide with a random primary structure, negative control, reference compound]",interaction of URP with ODN,[1],absence of interactions between the URP and ODNs
same,interaction of URP with ODN,[2],absence of interactions between the URP and ODNs
same,frequency reduction by URP,[3],no frequency reduction was occurred even after the addition of 100 nM URP
same,unspecific binding to NeutrAvidin,[4],no unspecific biding
CNc1ccc2oc(C[C@H]3O[C@@]4(CC[C@H]3C)O[C@H]([C@H](C)C(=O)c3ccc[nH]3)[C@H](C)C[C@H]4C)nc2c1C(=O)O [A23187],Σ 5-LOX metabolites,[5],416 ± 37 ng/10^7 PMNLs
5′- ggGGACGACGTCGTGgggggg-3′ (DNA dG*dG*dGdGdAdCdGdAdCdGdTdCdGdTdGdG*dG*dG*dG*dG*dG) [A-CpG],effect on 5-LOX activity / leukotriene synthesis,"[6]; ODN alone, 1 µM, 20 min, then opsonized S. typhimurium 15 min, Figure 1, five independent experiments in duplicate",did not significantly affect 5-LOX activity
same,Σ 5-LOX metabolites,"[6]; Table S1, 2×10^7 PMNLs, 15 min at 37 °C without or with 5 µM Chloroquine, then ODN, after 20 min 0.5×10^9 opsonized S. typhimurium for 15 min, mean ± SEM, three independent experiments",18.4 ± 2.1 ng/107 PMNLs

# Reference: article PMC7961786, “Magic Peptide: Unique Properties of the LRR11 Peptide in the Activation of Leukotriene Synthesis in Human Neutrophils” (International Journal of Molecular Sciences, 2021)
